The supplement of paper PMC6045584
± gives the standard deviation of the averaged measurements.

Columns and labels:
MK-1775 = compound: C=CCn1c(=O)c2cnc(Nc3ccc(N4CCN(C)CC4)cc3)nc2n1-c1cccc(C(C)(C)O)n1 [MK-1775]; experiment: surviving fraction relative to DMSO-only wells; higher = less growth inhibition; settings: exposure time: 5 days
Outline: (§1)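 Viability was determined by CellTiter-Glo luminescence, expressed as surviving fraction normalised to the median of DMSO-only wells. The cells were log-phase tumour cell lines seeded at 250–500 per well in 384-well plates and, after 24 hours, exposed continuously for five days to inhibitors at 0.5, 1, 5, 10, 50, 100, 500 and 1000 nM. Three screens per line were run, keeping only lines with replicate Pearson r >0.7 and median Z' >0.3.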

[1] = compound: C[C@@H]1CN(CC(=O)Nc2ccc3c(c2)Cc2cccc(-c4cc(=O)cc(N5CCOCC5)o4)c2S3)C[C@H](C)O1; experiment: as above; settings: exposure time: 5 days
Outline: as §1

Test System	surviving fraction (MK-1775; 0.5 nM)	surviving fraction (MK-1775; 1 nM)	surviving fraction (MK-1775; 5 nM)	surviving fraction (MK-1775; 10 nM)	surviving fraction (MK-1775; 50 nM)	surviving fraction (MK-1775; 100 nM)	surviving fraction (MK-1775; 500 nM)	surviving fraction (MK-1775; 1000 nM)	surviving fraction ([1]; 0.5 nM)	surviving fraction ([1]; 1 nM)	surviving fraction ([1]; 5 nM)	surviving fraction ([1]; 10 nM)	surviving fraction ([1]; 50 nM)	surviving fraction ([1]; 100 nM)	surviving fraction ([1]; 500 nM)	surviving fraction ([1]; 1000 nM)
NY BONE	1.04 ± 0.056	1.01 ± 0.014	1.1 ± 0.017	1.03 ± 0.013	0.638 ± 0.04	0.254 ± 0.016	0.113 ± 0.0076	0.0633 ± 0.0021	1.04 ± 0.014	1.06 ± 0.021	1.05 ± 0.024	1.07 ± 0.011	1.09 ± 0.043	1.12 ± 0.029	0.9613 ± 0.0029	0.915 ± 0.014
OS25HAL BONE	0.9753 ± 0.0045	0.9973 ± 0.0092	1.03 ± 0.019	1.02 ± 0.025	0.973 ± 0.042	0.554 ± 0.026	0.0463 ± 0.0032	0.0417 ± 0.0025	1.02 ± 0.026	1.02 ± 0.031	1.02 ± 0.022	1.02 ± 0.016	1.019 ± 0.0078	1.01 ± 0.019	1.05 ± 0.02	1.02 ± 0.018
OSHN BONE	1.06 ± 0.03	1.06 ± 0.026	1.08 ± 0.04	1.05 ± 0.039	1.08 ± 0.04	1.06 ± 0.046	0.143 ± 0.016	0.0503 ± 0.0025	1.06 ± 0.017	1.06 ± 0.029	1.09 ± 0.016	1.07 ± 0.025	1.017 ± 0.0072	1.021 ± 0.0095	1.01 ± 0.019	0.977 ± 0.0061
PCI30 HEADNECK	0.926 ± 0.1	0.937 ± 0.054	1.03 ± 0.036	1.05 ± 0.16	0.884 ± 0.069	0.745 ± 0.021	0.195 ± 0.02	0.137 ± 0.0085	0.947 ± 0.047	0.947 ± 0.054	0.969 ± 0.078	1.04 ± 0.052	1.04 ± 0.064	1.03 ± 0.1	1 ± 0.034	0.867 ± 0.044
RDES SOFT TISSUE	1.17 ± 0.088	1.09 ± 0.12	1.1 ± 0.077	1.08 ± 0.13	0.871 ± 0.3	1.15 ± 0.18	0.406 ± 0.055	0.187 ± 0.036	1.18 ± 0.1	1.15 ± 0.11	0.972 ± 0.078	1.08 ± 0.24	0.759 ± 0.24	0.786 ± 0.23	0.799 ± 0.17	0.912 ± 0.24
S68 BREAST	1.17 ± 0.41	1.18 ± 0.27	1.03 ± 0.11	0.848 ± 0.13	0.663 ± 0.093	0.329 ± 0.048	0.101 ± 0.008	0.0703 ± 0.011	1.03 ± 0.2	1.16 ± 0.29	1.09 ± 0.28	1.24 ± 0.22	0.826 ± 0.13	0.79 ± 0.18	0.589 ± 0.086	0.516 ± 0.076
SAOS2 BONE	1.1 ± 0.019	1.01 ± 0.057	1.05 ± 0.091	1.07 ± 0.055	0.887 ± 0.033	0.637 ± 0.027	0.176 ± 0.024	0.06 ± 0.0087	1.08 ± 0.037	1.01 ± 0.018	1.07 ± 0.021	1.1 ± 0.051	0.895 ± 0.057	0.977 ± 0.12	0.8487 ± 0.0063	0.774 ± 0.01
SCC003 HEADNECK	1.12 ± 0.07	1.08 ± 0.11	1.1 ± 0.12	1.11 ± 0.06	0.927 ± 0.026	0.874 ± 0.05	0.421 ± 0.08	0.247 ± 0.019	1.06 ± 0.054	1.03 ± 0.013	1.12 ± 0.077	1.08 ± 0.045	0.984 ± 0.033	0.967 ± 0.096	1.04 ± 0.1	0.908 ± 0.091
